Measurements taken from PubChem BioAssay AID2060905 (Molecular Pharmacology Branch, DTP, NCI, 2025).

System: 282377-053-R-J1-PDC complex spheroid viability
Experiment: Anticancer human tumor 282377-053-R-J1-PDC patient-derived colon adenocarcinoma cell line growth inhibition [RAS]
Conditions: for IC50: curve of first compound; for viability, T/C: stronger effect = lower value
Source text: RAS pathway inhibitors in Combinations in Complex Spheroids
A high-throughput screen of multi-cell type tumor spheroids was designed to identify active combinations of RAS pathway inhibitors and targeted small molecules. Complex spheroids include a stromal component modeled by human endothelial cells (HUVEC) and fibroblasts modeled by human mesenchymal stem cells (MSCs). The concentration ranges selected for each drug and investigational agent were based upon clinically achievable concentrations if the clinical Cmax of the agent was known.
Compounds. The drugs and investigational agents: abemaciclib (NSC768073), cobimetinib (NSC768068), divarasib (GDC6063, NSC841802), docetaxel (NSC628503), GDC-1971 (RLY-1971, NSC841576), gemcitabine (NSC613327), inavolisib (NSC800729), ipatasertib (NSC767898), KB-0742 (NSC834161), MRTX-1133 (NSC836407), osimertinib (NSC779217), RMC-4630 (NSC839698), RMC-6236 (NSC851965), RMC-6291 (NSC852671), Ro-3306 (NSC812927), sapanisertib (NSC764658), SN-38 (NSC673596), staurosporine (NSC755774), SY5609 (NSC837396), and tovorafenib (DAY101, NSC766906), were obtained from the National Cancer Institute (NCI) Developmental Therapeutics Program Chemical Repository. The FDA-approved anticancer drug set is available from the NCI Developmental Therapeutics Program. […] The stock solutions were prepared in dimethyl sulfoxide (DMSO, Sigma-Aldrich, St. Louis, MO, cat. D2650) at 800-fold the tested concentration and stored at -70 degrees C prior to their use. All drugs and investigational agents were tested over a range starting from a high concentration at or near the clinical Cmax and decreasing in half-log increments. If the clinical Cmax for an agent had not been determined, the highest concentration tested was 10 microM.
Cell Culture. All cells were maintained in an incubator at 37 degrees C and 5% CO2 with 95% humidity. The PDC lines were cultured according to standard operating procedures established by the NCI PDMR. All PDCs were thawed and cultured in Matrigel-coated flasks prepared with a working solution of 1X Ham's F-12 nutrient mix, without supplementation (Invitrogen, Waltham, MA, cat. 11765054), 100 U/mL penicillin-streptomycin (Invitrogen, cat. 15140122), and 2.5% Matrigel (Corning Inc., Corning, NY, cat. 354248) for the first three passages. The 362531-283-R-J2-PDC and 782815-120-R-J1-PDC lines were cultured in 6C/Colon 1B media, which includes advanced DMEM/F-12 (Thermo Fisher Scientific, cat. 12634028), 10 mM HEPES (Thermo Fisher Scientific, cat. 15630080), 1X GlutaMAX supplement (Thermo Fisher Scientific, cat. 35050061), 0.1 mg/mL primocin (InvivoGen, San Diego, CA, cat. ant-pm-2), 10% defined fetal bovine serum, heat inactivated (HyClone Laboratories Inc., Logan, UT, cat. SH30070.03HI), 50% L-WRN conditioned media (ATCC, cat. CRL-3276), 1.25 mM N-Acetyl-L-cysteine (Sigma-Aldrich, cat. A9165), 10 mM nicotinamide (Sigma-Aldrich, cat. N0636), 1X B-27 supplement (Thermo Fisher Scientific, cat. 17504044), 1X N-2 supplement (Thermo Fisher Scientific, cat. 17502048), 50 ng/mL human EGF (Thermo Fisher Scientific, cat. PHG0311), and 10 microM Y-27632 dihydrochloride (Tocris Bioscience, cat. 1254). The K12877-001-R-J1-PDC line was cultured in 6I media, which includes all 6C/Colon 1B media plus 10 ng/mL human FGF-10 (PeproTech, cat. 100-26), 1 ng/mL human FGF-2 (PeproTech, cat. 100-18B), 1 µM prostaglandin E2 (Tocris Bioscience, cat. 2296), […] hydrocortisone (Sigma-Aldrich, cat. H4001), and […] bovine insulin (Sigma-Aldrich, cat. I6634). The K86415-001-R-J1-PDC line was cultured in 6D media, which includes all 6C/Colon 1B media components minus the L-WRN conditioned media. The 485176-168-R4-J1-PDC was cultured in PANC media, which includes all 6C/Colon 1B media plus 100 ng/mL human FGF-10 (PeproTech, cat. 100-26), 500 nM SB-431542 (Selleckchem, cat. S1067), and 10 nM gastrin (Tocris Bioscience, cat. 3006). […]
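Further: spheroids exposed to agents for seven days before readout.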
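Wherever viability, T/C is given: luminescence viability as percent of DMSO vehicle control wells.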

**Q.** For `CC(C)n1nc(-c2ccc3oc(N)nc3c2)c2c(N)ncnc21` + CCn1c(-c2cccnc2C(C)OC)c2c3cc(ccc31)N1CCOC(CC(NC(=O)C(C(C)C)N(C)C(=O)C3(F)CCN(C(=O)C#CC(C)(C)N(C)C)CC3)C(=O)N3CCCC(N3)C(=O)OCC(C)(C)C2)C1, which IC50 (second compound 0.000949 µM) is on record?
**A.** > 100 nM

**Q.** And the IC50 (second compound 0.003 µM)?
**A.** > 100 nM

**Q.** What about the IC50 (second compound 0.00949 µM) of the same compound?
**A.** > 100 nM

**Q.** And the IC50 (second compound 0.03 µM)?
**A.** > 100 nM

**Q.** And the IC50 (second compound 0.0949 µM)?
**A.** > 100 nM

**Q.** And the IC50 (second compound 0.3 µM)?
**A.** > 100 nM

**Q.** And the viability, T/C (second compound 0.000949 µM, first compound 0.000316 µM)?
**A.** 91.5%

**Q.** And the viability, T/C (second compound 0.000949 µM, first compound 0.001 µM)?
**A.** 112%

**Q.** And the viability, T/C (second compound 0.000949 µM, first compound 0.00316 µM)?
**A.** 87.1%

**Q.** And the viability, T/C (second compound 0.000949 µM, first compound 0.01 µM)?
**A.** 76.9%

**Q.** And the viability, T/C (second compound 0.000949 µM, first compound 0.0316 µM)?
**A.** 65.7%

**Q.** What about the viability, T/C (second compound 0.000949 µM, first compound 0.1 µM) of the same compound?
**A.** 59.7%

**Q.** And the viability, T/C (second compound 0.003 µM, first compound 0.000316 µM)?
**A.** 84.5%

**Q.** What about the viability, T/C (second compound 0.003 µM, first compound 0.001 µM) of the same compound?
**A.** 103%

**Q.** And the viability, T/C (second compound 0.003 µM, first compound 0.00316 µM)?
**A.** 73.8%

**Q.** And the viability, T/C (second compound 0.003 µM, first compound 0.01 µM)?
**A.** 73.6%

**Q.** What about the viability, T/C (second compound 0.003 µM, first compound 0.0316 µM) of the same compound?
**A.** 75.3%

**Q.** What about the viability, T/C (second compound 0.003 µM, first compound 0.1 µM) of the same compound?
**A.** 70.1%

**Q.** And the viability, T/C (second compound 0.00949 µM, first compound 0.000316 µM)?
**A.** 119%

**Q.** What about the viability, T/C (second compound 0.00949 µM, first compound 0.001 µM) of the same compound?
**A.** 108%

**Q.** What about the viability, T/C (second compound 0.00949 µM, first compound 0.00316 µM) of the same compound?
**A.** 98.5%

**Q.** What about the viability, T/C (second compound 0.00949 µM, first compound 0.01 µM) of the same compound?
**A.** 80%

**Q.** And the viability, T/C (second compound 0.00949 µM, first compound 0.0316 µM)?
**A.** 67.8%

**Q.** And the viability, T/C (second compound 0.00949 µM, first compound 0.1 µM)?
**A.** 59.1%

**Q.** And the viability, T/C (second compound 0.03 µM, first compound 0.000316 µM)?
**A.** 110%

**Q.** What about the viability, T/C (second compound 0.03 µM, first compound 0.001 µM) of the same compound?
**A.** 87.2%

**Q.** What about the viability, T/C (second compound 0.03 µM, first compound 0.00316 µM) of the same compound?
**A.** 77.3%

**Q.** What about the viability, T/C (second compound 0.03 µM, first compound 0.01 µM) of the same compound?
**A.** 86%

**Q.** And the viability, T/C (second compound 0.03 µM, first compound 0.0316 µM)?
**A.** 66.9%

**Q.** What about the viability, T/C (second compound 0.03 µM, first compound 0.1 µM) of the same compound?
**A.** 50.2%

**Q.** And the viability, T/C (second compound 0.0949 µM, first compound 0.000316 µM)?
**A.** 100%

**Q.** And the viability, T/C (second compound 0.0949 µM, first compound 0.001 µM)?
**A.** 117%

**Q.** And the viability, T/C (second compound 0.0949 µM, first compound 0.00316 µM)?
**A.** 86.9%

**Q.** What about the viability, T/C (second compound 0.0949 µM, first compound 0.01 µM) of the same compound?
**A.** 75%

**Q.** And the viability, T/C (second compound 0.0949 µM, first compound 0.0316 µM)?
**A.** 68.1%

**Q.** What about the viability, T/C (second compound 0.0949 µM, first compound 0.1 µM) of the same compound?
**A.** 48.5%

**Q.** And the viability, T/C (second compound 0.3 µM, first compound 0.000316 µM)?
**A.** 107%

**Q.** And the viability, T/C (second compound 0.3 µM, first compound 0.001 µM)?
**A.** 89.2%

**Q.** And the viability, T/C (second compound 0.3 µM, first compound 0.00316 µM)?
**A.** 96.3%

**Q.** And the viability, T/C (second compound 0.3 µM, first compound 0.01 µM)?
**A.** 73.2%

**Q.** What about the viability, T/C (second compound 0.3 µM, first compound 0.0316 µM) of the same compound?
**A.** 71.6%

**Q.** And the viability, T/C (second compound 0.3 µM, first compound 0.1 µM)?
**A.** 57.3%
